From PubChem BioAssay (NCI)
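Grown in 96-well plates, cells were treated for 48 hours with each compound at five concentrations. Insufficient inhibition: endpoint recorded as highest concentration tested. TGI denotes the concentration required for complete inhibition of growth.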

What was measured:
Experiment in all cases: growth of human tumour cells (NCI), 48 h
786-0 renal = system: 786-0 renal
NCI-H460 lung = system: NCI-H460 lung
T-47D breast = system: T-47D breast
CCRF-CEM leukemia = system: CCRF-CEM leukemia
DMS 114 small cell lung = system: DMS 114 small cell lung
SK-MEL-5 melanoma = system: SK-MEL-5 melanoma
NCI-H226 lung = system: NCI-H226 lung
HCT-116 colon = system: HCT-116 colon
LXFL 529 NSCLC = system: LXFL 529 NSCLC
RPMI-8226 leukemia = system: RPMI-8226 leukemia

Compound | TGI (786-0 renal) | TGI (NCI-H460 lung) | TGI (T-47D breast) | TGI (CCRF-CEM leukemia) | TGI (DMS 114 small cell lung) | TGI (SK-MEL-5 melanoma) | TGI (NCI-H226 lung) | TGI (HCT-116 colon) | TGI (LXFL 529 NSCLC) | TGI (RPMI-8226 leukemia)
C[N+](C)(C)CC(=O)N/N=C(\C(=O)NC1=C(Cl)C(=O)c2ccccc2C1=O)C(C#N)c1nc(-c2ccc([N+](=O)[O-])cc2)cs1 (configuration not stated) | 29.1 µM | 25.2 µM | 37.9 µM | 49.5 µM | 9.62 µM | 2.7 µM | 38.6 µM | 20.8 µM | 21.4 µM | 47 µM
O=C(O/N=C1/CCC/C1=C\c1ccccc1)c1ccc(Cl)c(Cl)c1 | > 100 µM | > 100 µM |  | > 100 µM | > 100 µM | > 100 µM | > 100 µM | > 100 µM | > 100 µM | > 100 µM
CCOC(=O)C(CC/C=C\c1ccccc1)N1CCC[C@H]1C(=O)OC (some centres not stated) | > 100 µM | > 100 µM |  | > 100 µM | > 100 µM | > 100 µM | > 100 µM | > 100 µM | > 100 µM | > 100 µM
Cc1cccc(C(C)(C)C)c1NC(=O)CCc1nc(=S)[nH][nH]1 | > 100 µM | > 100 µM |  | > 100 µM | > 100 µM | > 100 µM | > 100 µM | > 100 µM | > 100 µM | > 100 µM
